Results as given in US8785457B2 (Cellzome Limited, priority 2009, dated 2014).
Where two headings read alike, the source gives them in different places.

What was measured:
[1] = system: Salmonella strains, TA98 and TA100; conditions: with rat liver S9 fraction
Text: The Ames Salmonella/microsome mutagenicity assay (Salmonella test; Ames test) is a standard, short-term bacterial reverse mutation assay specifically designed to detect a wide range of chemical substances that can produce genetic damage leading to gene mutations. The test employs several histidine dependent Salmonella strains each carrying different mutations in various genes of the histidine operon (Mortelmans and Zeiger 2000, Mutation Research 455, 29-60). […]
Certain compounds of the invention were tested in a miniaturized screening version of the Ames test that requires a small amount of compound compared with the regulatory test. […] The bacterial plates are incubated with the test compounds for 96 hours, after which bacterial growth is measured spectrophotometrically using a pH indicator that changes color in response to the acidification of the media due to bacterial growth. […]
(§1) The significance of the positive counts between the treatment (in the presence of compound) and the control (in the absence of test compound) are calculated using the one-tailed Fisher's exact test—the significance levels are reported as follows: • Weak positive, if 0.01≦p≦0.05, denoted as “+” • Strong positive, if 0.001≦p≦0.01, denoted as “++” • Very strong positive, if p<0.001, denoted as “+++” • Hyphens (−) indicate negative results

Salmonella strain TA98 = system: Salmonella strain TA98
Method: (§2) Certain compounds of the invention were tested in a miniaturized screening version of the Ames test that requires a small amount of compound compared with the regulatory test. The Ames fluctuation assay is performed in 384-well plates using two Salmonella strains, TA98 and TA100. TA98 detects frameshifts and TA100 detects base substitutions leading to missense mutations. Whereas the original Ames test is carried out by plating bacteria onto selective agar plates, the Ames fluctuation assay is carried out in liquid culture using 384-well plates. The bacterial plates are incubated with the test compounds for 96 hours, after which bacterial growth is measured spectrophotometrically using a pH indicator that changes color in response to the acidification of the media due to bacterial growth.
(§3) Metabolic activation is achieved by using rat liver S9 fraction (0.2 mg/ml). To prevent false negatives due to bacteriocidal or bacteriostatic effects, a bacterial cytotoxicity assay is conducted in parallel with the Ames fluctuation assay. Compounds are typically tested in both bacterial strains with and without S9, at four concentrations (5, 10, 50 and 100 μM) with n=48 wells. A bacterial cytotoxicity test is conducted in parallel at 8 concentrations (with 100 μM as the highest concentration) and n=3 wells. Four reference compounds (quercetin, streptozotocin, aminoanthracene and mitomycin C) are included in all experiments.
as §1

Salmonella strain TA100 = system: Salmonella strain TA100
Method: as §2, §3, §1

**Q.** For `CCOC(=O)N1Cc2nc(-c3ccc(N)cc3)nc(N3CCOC[C@@H]3C)c2C1` [Metabolite Example 137, (S)-ethyl 2-(4-aminophenyl)-4-(3-methylmorpholino)-5H-pyrrolo[3,4-d]pyrimidine-6(7H)-carboxylate], which Ames assay result [1] is on record?
**A.** Ames positive

**Q.** For `CCOC(=O)N1Cc2nc(-c3ccc(N)c(F)c3)nc(N3CCOC[C@@H]3C)c2C1` [Intermediate 19], which “Ames fluctuation assay TA98 +S9” value (Salmonella strain TA98; TA98, +S9, 5 μM) is on record?
**A.** +++ +++ +++ +++ (Very strong positive, if p<0.001, denoted as “+++”)

**Q.** And the “Ames fluctuation assay TA98 +S9” value (Salmonella strain TA98; TA98, +S9, 10 μM)?
**A.** +++ +++ +++ +++ (Very strong positive, if p<0.001, denoted as “+++”)

**Q.** What about the “Ames fluctuation assay TA98 +S9” value (Salmonella strain TA98; TA98, +S9, 50 μM) of the same molecule?
**A.** +++ +++ +++ +++ (Very strong positive, if p<0.001, denoted as “+++”)

**Q.** And the “Ames fluctuation assay TA98 +S9” value (Salmonella strain TA98; TA98, +S9, 100 μM)?
**A.** +++ +++ +++ +++ (Very strong positive, if p<0.001, denoted as “+++”)

**Q.** And the “Ames fluctuation assay TA100 +S9” value (Salmonella strain TA100; TA100, +S9, 5 μM)?
**A.** −

**Q.** What about the “Ames fluctuation assay TA100 +S9” value (Salmonella strain TA100; TA100, +S9, 10 μM) of the same molecule?
**A.** +++ (Very strong positive, if p<0.001, denoted as “+++”)

**Q.** And the “Ames fluctuation assay TA100 +S9” value (Salmonella strain TA100; TA100, +S9, 50 μM)?
**A.** +++ (Very strong positive, if p<0.001, denoted as “+++”)

**Q.** And the “Ames fluctuation assay TA100 +S9” value (Salmonella strain TA100; TA100, +S9, 100 μM)?
**A.** +++ (Very strong positive, if p<0.001, denoted as “+++”)

**Q.** With `CCOC(=O)N1Cc2nc(-c3ccc(N)cc3)nc(N3CCOC[C@@H]3C)c2C1` [Example 137] as the molecule, how does the “Ames fluctuation assay TA98 +S9” value (Salmonella strain TA98; TA98, +S9, 5 μM) read?
**A.** +++ +++ +++ +++ (Very strong positive, if p<0.001, denoted as “+++”)

**Q.** And the “Ames fluctuation assay TA98 +S9” value (Salmonella strain TA98; TA98, +S9, 10 μM)?
**A.** +++ +++ +++ +++ (Very strong positive, if p<0.001, denoted as “+++”)

**Q.** What about the “Ames fluctuation assay TA98 +S9” value (Salmonella strain TA98; TA98, +S9, 50 μM) of the same molecule?
**A.** +++ +++ +++ +++ (Very strong positive, if p<0.001, denoted as “+++”)

**Q.** What about the “Ames fluctuation assay TA98 +S9” value (Salmonella strain TA98; TA98, +S9, 100 μM) of the same molecule?
**A.** +++ +++ +++ +++ (Very strong positive, if p<0.001, denoted as “+++”)

**Q.** What about the “Ames fluctuation assay TA100 +S9” value (Salmonella strain TA100; TA100, +S9, 5 μM) of the same molecule?
**A.** −

**Q.** What about the “Ames fluctuation assay TA100 +S9” value (Salmonella strain TA100; TA100, +S9, 10 μM) of the same molecule?
**A.** −

**Q.** What about the “Ames fluctuation assay TA100 +S9” value (Salmonella strain TA100; TA100, +S9, 50 μM) of the same molecule?
**A.** ++ (Strong positive, if 0.001≦p≦0.01, denoted as “++”)

**Q.** What about the “Ames fluctuation assay TA100 +S9” value (Salmonella strain TA100; TA100, +S9, 100 μM) of the same molecule?
**A.** −
